Test results as given in the supplement of paper PMC11451515.

System: P12-Ichikawa
Assay: cell viability relative to DMSO control; higher = less cytotoxic
Conditions: 48 h
Method in brief: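 Three leukemia lines were tested: NOMO1 and SEM at 500 cells/well and P12-Ichikawa at 1000 cells/well. Each was adapted for at least four passages in each medium and seeded in 5 μl in 1536-well plates, and library compounds in DMSO were pin-dosed from 47 μM to 0.79 nM in 11 threefold steps. After 48 h at 37°C, CellTiter-Glo One luminescence was read. Viability is a percentage relative to DMSO wells on each plate, with cell-free wells as background.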

[1] = HPLM + 10% dialyzed FBS, 0.000781 µM
[2] = HPLM + 10% dialyzed FBS, 0.00234 µM
[3] = HPLM + 10% dialyzed FBS, 0.00702 µM
[4] = HPLM + 10% dialyzed FBS, 0.0211 µM
[5] = HPLM + 10% dialyzed FBS, 0.0632 µM
[6] = HPLM + 10% dialyzed FBS, 0.19 µM
[7] = HPLM + 10% dialyzed FBS, 0.569 µM
[8] = HPLM + 10% dialyzed FBS, 1.71 µM
[9] = HPLM + 10% dialyzed FBS, 5.12 µM
[10] = HPLM + 10% dialyzed FBS, 15.4 µM
[11] = HPLM + 10% dialyzed FBS, 46.1 µM
[12] = RPMI 5 mM glucose + 10% FBS, 0.000781 µM
[13] = RPMI 5 mM glucose + 10% FBS, 0.00234 µM
[14] = RPMI 5 mM glucose + 10% FBS, 0.00702 µM
[15] = RPMI 5 mM glucose + 10% FBS, 0.0211 µM
[16] = RPMI 5 mM glucose + 10% FBS, 0.0632 µM
[17] = RPMI 5 mM glucose + 10% FBS, 0.19 µM
[18] = RPMI 5 mM glucose + 10% FBS, 0.569 µM
[19] = RPMI 5 mM glucose + 10% FBS, 1.71 µM
[20] = RPMI 5 mM glucose + 10% FBS, 5.12 µM
[21] = RPMI 5 mM glucose + 10% FBS, 15.4 µM
[22] = RPMI 5 mM glucose + 10% FBS, 46.1 µM
[23] = RPMI 5 mM glucose + 10% dialyzed FBS, 0.000781 µM
[24] = RPMI 5 mM glucose + 10% dialyzed FBS, 0.00234 µM
[25] = RPMI 5 mM glucose + 10% dialyzed FBS, 0.00702 µM
[26] = RPMI 5 mM glucose + 10% dialyzed FBS, 0.0211 µM
[27] = RPMI 5 mM glucose + 10% dialyzed FBS, 0.0632 µM
[28] = RPMI 5 mM glucose + 10% dialyzed FBS, 0.19 µM
[29] = RPMI 5 mM glucose + 10% dialyzed FBS, 0.569 µM
[30] = RPMI 5 mM glucose + 10% dialyzed FBS, 1.71 µM
[31] = RPMI 5 mM glucose + 10% dialyzed FBS, 5.12 µM
[32] = RPMI 5 mM glucose + 10% dialyzed FBS, 15.4 µM
[33] = RPMI 5 mM glucose + 10% dialyzed FBS, 46.1 µM

Row | SMILES | cell viability [1] | cell viability [2] | cell viability [3] | cell viability [4] | cell viability [5] | cell viability [6] | cell viability [7] | cell viability [8] | cell viability [9] | cell viability [10] | cell viability [11] | cell viability [12] | cell viability [13] | cell viability [14] | cell viability [15] | cell viability [16] | cell viability [17] | cell viability [18] | cell viability [19] | cell viability [20] | cell viability [21] | cell viability [22] | cell viability [23] | cell viability [24] | cell viability [25] | cell viability [26] | cell viability [27] | cell viability [28] | cell viability [29] | cell viability [30] | cell viability [31] | cell viability [32] | cell viability [33]
1 | Cc1cc(Cl)ccc1OCCCC(=O)NO | 102% | 105% | 105% | 116% | 106% | 105% | 101% | 98.6% | 78.3% | 15% | 3.84% | 97.8% | 102% | 108% | 110% | 101% | 98.2% | 99.4% | 81.2% | 57.9% | 17.4% | 3.91% | 113% | 104% | 108% | 111% | 111% | 102% | 100% | 35.9% | 37.2% | 5.67% | 3.42%
2 | CC(C)NCC(O)c1ccc(NS(C)(=O)=O)cc1 (centres undefined) | 104% | 113% | 96.3% | 105% | 117% | 111% | 104% | 108% | 98% | 102% | 100% | 109% | 102% | 99.9% | 105% | 97.9% | 110% | 106% | 112% | 101% | 98.7% | 101% | 101% | 102% | 100% | 98.6% | 97% | 94.3% | 99.2% | 91% | 91% | 99.2% | 96.6%
3 | OC1=CC=C(C=C1)\C2=C\C(=O)C3=C(O2)C=C(O)C=C3O | 110% | 112% | 113% | 119% | 114% | 120% | 116% | 108% | 107% | 108% | 109% | 111% | 109% | 112% | 111% | 105% | 106% | 104% | 105% | 104% | 109% | 96.6% | 117% | 120% | 119% | 122% | 118% | 113% | 115% | 109% | 110% | 103% | 96.4%
4 | COC1(C[S+]([O-])c2ccccc2)CCN(CCc2c[nH]c3ccc(F)cc23)CC1 (centres undefined) | 112% | 105% | 112% | 114% | 113% | 115% | 109% | 96.6% | 102% | 99.6% | 93.2% | 117% | 116% | 133% | 148% | 140% | 99.9% | 78.9% | 78.7% | 115% | 106% | 97.6% | 104% | 111% | 114% | 116% | 109% | 105% | 103% | 98.4% | 105% | 99.9% | 85.4%
5 | N\C1=N\C2=C(N=C[N]2COC(CO)CO)C(=O)N1 | 107% | 108% | 109% | 113% | 115% | 115% | 119% | 120% | 119% | 116% | 5.18% | 104% | 102% | 112% | 119% | 121% | 110% | 124% | 124% | 117% | 107% | 3.39% | 101% | 98.3% | 108% | 118% | 106% | 116% | 113% | 109% | 112% | 109% | 4.18%
6 | COc1ccc(Nc2cc(-c3cnc(N)nc3)nc(N3CCOCC3)n2)cn1 | 98.7% | 101% | 98.4% | 102% | 103% | 94.9% | 96.7% | 89.9% | 63.7% | 71.1% | 71.9% | 89.9% | 90.9% | 93.9% | 90.7% | 100% | 87.7% | 89.5% | 79.3% | 52.2% | 54.1% | 56.6% | 93.7% | 90.4% | 95.8% | 98.7% | 102% | 98.6% | 86.3% | 88.1% | 50.4% | 54.1% | 51.7%
7 | CN(C)CCCNC(=O)c1ccc(-c2cc(O)c3ncccc3c2)cc1 | 102% | 102% | 106% | 107% | 106% | 111% | 93.9% | 104% | 101% | 95.2% | 82.6% | 95.7% | 97.4% | 101% | 104% | 111% | 89.6% | 93.3% | 95.5% | 92% | 99.8% | 63.6% | 92.3% | 97.9% | 96.8% | 97.5% | 103% | 95.1% | 98.5% | 90.6% | 83.4% | 100% | 71.1%
8 | COC(=O)[C@@H](N)CCCNC(=N)N[N+](=O)[O-] | 94.6% | 102% | 104% | 98.4% | 111% | 98.1% | 110% | 107% | 107% | 103% | 115% | 85.4% | 96.7% | 99% | 94% | 105% | 98.5% | 114% | 103% | 105% | 99.3% | 105% | 85.9% | 93% | 90.7% | 97.5% | 99.2% | 91.5% | 99.7% | 98.6% | 95.9% | 92% | 94%
9 | NCC(=O)Nc1ccc(-n2nc(C(F)(F)F)cc2-c2ccc3c(ccc4ccccc43)c2)cc1 | – | – | – | – | – | – | – | – | – | – | – | 24.1% | 123% | 137% | 133% | 125% | 120% | 105% | 106% | 92.1% | 79.2% | 79% | – | – | – | – | – | – | – | – | – | – | –
10 | COC1=CC=C(C=C1)C2CC(=N/N2C3=CC=C(C=C3)[S+](N)([O-])=O)\C4=CC=CC=C4 (centres undefined) | 95.3% | 91.6% | 102% | 102% | 99.5% | 108% | 108% | 83.8% | 63.1% | 4.53% | 2.18% | 101% | 90% | 94% | 94.4% | 106% | 89.6% | 99.8% | 67.8% | 42% | 3.73% | 1.01% | 85.6% | 96.2% | 96.6% | 100% | 95.9% | 85.9% | 91.4% | 65.8% | 35.8% | 4.09% | 1.97%
11 | CCN(CC)CCN1C(=O)\C(=N/C2=CC=CC=C12)CC3=CC=C(OC)C=C3 | 107% | 111% | 110% | 114% | 119% | 114% | 120% | 113% | 109% | 114% | 113% | 93.6% | 113% | 109% | 119% | 127% | 121% | 130% | 119% | 111% | 114% | 119% | 107% | 112% | 118% | 107% | 112% | 109% | 109% | 111% | 104% | 96.5% | 96.6%
12 | CNCC(O)C(O)C(O)C(O)CO.O=C(O)c1ccc(-c2cc3cccnc3c(-c3ccc4nonc4c3)n2)cc1 | 105% | 112% | 115% | 106% | 119% | 116% | 120% | 119% | 112% | 117% | 99.4% | 113% | 107% | 122% | 107% | 123% | 127% | 122% | 116% | 121% | 109% | 102% | 104% | 114% | 111% | 104% | 115% | 114% | 119% | 120% | 113% | 104% | 89.4%
13 | CC(=O)O[C@@]12CO[C@@H]1C[C@H](O)[C@]3(C)[C@@H]2[C@H](OC(=O)C4=CC=CC=C4)[C@]5(O)C[C@H](OC(=O)C(O)[C@@H](NC(=O)OC(C)(C)C)C6=CC=CC=C6)C(=C(/[C@@H](O)C3=O)C5(C)C)/C (some centres undefined) | 28% | 36.3% | 37.7% | 38% | 42.2% | 40.1% | 24.8% | 19.8% | 8.29% | 4.99% | 3.29% | 33.6% | 32.1% | 35.6% | 35.2% | 37.2% | 34.8% | 25.5% | 25.5% | 11.8% | 6.81% | 3.21% | 42.5% | 46.4% | 48.1% | 57.5% | 49.4% | 51.4% | 40.2% | 31.5% | 15.5% | 5.67% | 2.26%
14 | Cc1ncc([N+](=O)[O-])n1CCO | 116% | 121% | 126% | 125% | 118% | 123% | 120% | 132% | 124% | 110% | 123% | 106% | 115% | 123% | 127% | 112% | 112% | 127% | 124% | 123% | 116% | 120% | 121% | 129% | 122% | 129% | 135% | 135% | 127% | 125% | 131% | 129% | 128%
15 | C[C@@H]1CC[C@@]2(OC1)OC1CC3C4CC=C5CC(O)CCC5(C)C4CCC3(C)C1[C@@H]2C (some centres undefined) | 101% | 105% | 97% | 104% | 107% | 106% | 112% | 106% | 110% | 25.8% | 6.49% | 98.9% | 99.9% | 102% | 106% | 106% | 99.3% | 104% | 108% | 118% | 86.8% | 36.4% | 92% | 96.3% | 92.3% | 99.3% | 97% | 106% | 105% | 105% | 119% | 73.8% | 16.8%
16 | N#CC(=C(/N)Sc1ccccc1N)/C(C#N)=C(\N)Sc1ccccc1N | 115% | 121% | 120% | 128% | 131% | 125% | 131% | 120% | 126% | 124% | 111% | – | – | – | – | – | – | – | – | – | – | – | – | – | – | – | – | – | – | – | – | – | –
